From US20120121591A1 (priority 2009, published 2012)
Where two headings read alike, the source gives them in different places.

Tests used:
Format in all cases: cell-based
[1] = target: hKv1.3 (Homo sapiens, UniProt P22001); test: cell-based; details: Kv1.3 (IWQ) IC50 (nM, Avg)
[2] = tested on: IL-2 secretion from T cells in human whole blood; details: read-out: WB (IL-2) IC50 (nM, Avg)
[3] = tested on: IFN-g secretion from T cells in human whole blood
[4] = read-out: WB (IFNg) IC50 (nM, Avg)

Sequence of hKv1.3 (P22001 whole entry): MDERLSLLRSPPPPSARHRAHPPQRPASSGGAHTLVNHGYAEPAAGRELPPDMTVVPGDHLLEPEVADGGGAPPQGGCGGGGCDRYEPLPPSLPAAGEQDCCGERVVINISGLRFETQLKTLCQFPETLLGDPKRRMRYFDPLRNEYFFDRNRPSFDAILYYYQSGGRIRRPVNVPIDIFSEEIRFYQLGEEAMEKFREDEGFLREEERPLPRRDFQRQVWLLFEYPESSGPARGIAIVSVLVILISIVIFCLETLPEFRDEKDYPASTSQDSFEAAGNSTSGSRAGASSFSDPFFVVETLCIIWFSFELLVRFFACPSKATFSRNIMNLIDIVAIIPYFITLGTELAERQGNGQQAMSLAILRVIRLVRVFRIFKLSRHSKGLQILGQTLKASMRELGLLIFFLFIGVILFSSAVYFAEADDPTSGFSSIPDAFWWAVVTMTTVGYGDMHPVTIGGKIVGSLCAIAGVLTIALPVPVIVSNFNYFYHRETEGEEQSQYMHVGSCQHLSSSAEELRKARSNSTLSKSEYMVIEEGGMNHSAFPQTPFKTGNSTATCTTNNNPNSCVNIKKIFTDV

| SMILES | IC50 [1] [nM] | IC50 [2] [nM] | IC50 ([3]; read-out: WB (IFNg) IC5- (nM, Avg)) [nM] | IC50 [3, 4] [nM] |
| --- | --- | --- | --- | --- |
| CC[C@H](C)[C@@H]1NC(=O)[C@@H](NC(=O)[C@H](CO)NC(=O)[C@@H](N)CCCNC(=N)N)CSSC[C@@H](C(=O)O)NC(=O)[C@H]([C@@H](C)O)NC(=O)CNC(=O)[C@@H]2CSSC[C@@H]3NC(=O)[C@H](CCC(N)=O)NC(=O)[C@H](Cc4ccccc4)NC(=O)[C@H](C)NC(=O)[C@H]([C@@H](C)O)NC(=O)[C@H](CSSC[C@H](NC(=O)[C@H](Cc4ccccc4)NC(=O)[C@H](CO)NC(=O)[C@H](CC(C)C)NC(=O)[C@H](CCCNC(=N)N)NC(=O)[C@H](Cc4ccc(O)cc4)NC(=O)[C@H](CCCCN)NC(=O)[C@H](CCSC)NC(=O)[C@H](CO)NC(=O)[C@H](Cc4c[nH]cn4)NC(=O)[C@H](CCCCN)NC3=O)C(=O)N[C@@H](CCCNC(=N)N)C(=O)N[C@@H](CCCCN)C(=O)N[C@@H](CCC(=O)O)C(=O)N2)NC(=O)[C@H](CCCNC(=N)N)NC(=O)[C@H](CO)NC(=O)[C@H](CCCCN)NC(=O)[C@@H]2CCCN2C(=O)[C@H]([C@@H](C)CC)NC(=O)[C@H]([C@@H](C)O)NC(=O)[C@H](CC(=O)O)NC1=O [[Glu31]ShK] | 0.22 | 0.242 | 0.309 |  |
| CC[C@H](C)[C@@H]1NC(=O)[C@@H](NC(=O)[C@H](CO)NC(=O)[C@@H](N)CCCNC(=N)N)CSSC[C@@H](C(N)=O)NC(=O)[C@H]([C@@H](C)O)NC(=O)CNC(=O)[C@@H]2CSSC[C@@H]3NC(=O)[C@H](CCCCN)NC(=O)[C@H](Cc4ccccc4)NC(=O)[C@H](C)NC(=O)[C@H]([C@@H](C)O)NC(=O)[C@H](CSSC[C@H](NC(=O)[C@H](Cc4ccccc4)NC(=O)[C@H](CO)NC(=O)[C@H](CC(C)C)NC(=O)[C@H](CCCNC(=N)N)NC(=O)[C@H](Cc4ccc(O)cc4)NC(=O)[C@H](CCCCN)NC(=O)[C@H](Cc4ccccc4)NC(=O)[C@H](CO)NC(=O)[C@H](Cc4c[nH]cn4)NC(=O)[C@H](CCCCN)NC3=O)C(=O)N[C@@H](CCCNC(=N)N)C(=O)N[C@@H](CCCCN)C(=O)N[C@@H]([C@@H](C)O)C(=O)N2)NC(=O)[C@H](CCCNC(=N)N)NC(=O)[C@H](CO)NC(=O)[C@H](CCCCN)NC(=O)[C@@H]2CCCN2C(=O)[C@H]([C@@H](C)CC)NC(=O)[C@H]([C@@H](C)O)NC(=O)[C@H](CC(=O)O)NC1=O [[Lys16, Phe21]ShK-amide] | 0.246 | 1.47 |  | 2.04 |
| CC[C@H](C)[C@@H]1NC(=O)[C@@H](NC(=O)[C@H](CO)NC(=O)[C@@H](N)CCCNC(=N)N)CSSC[C@@H](C(=O)O)NC(=O)[C@H]([C@@H](C)O)NC(=O)CNC(=O)[C@@H]2CSSC[C@@H]3NC(=O)[C@H](CCC(N)=O)NC(=O)[C@H](Cc4ccccc4)NC(=O)[C@H](C)NC(=O)[C@H]([C@@H](C)O)NC(=O)[C@H](CSSC[C@H](NC(=O)[C@H](Cc4ccccc4)NC(=O)[C@H](CO)NC(=O)[C@H](C)NC(=O)[C@H](CCCNC(=N)N)NC(=O)[C@H](Cc4ccc(O)cc4)NC(=O)[C@H](CCCCN)NC(=O)[C@H](CCSC)NC(=O)[C@H](CO)NC(=O)[C@H](Cc4c[nH]cn4)NC(=O)[C@H](CCCCN)NC3=O)C(=O)N[C@@H](CCCNC(=N)N)C(=O)N[C@@H](CCCCN)C(=O)N[C@@H]([C@@H](C)O)C(=O)N2)NC(=O)[C@H](CCCNC(=N)N)NC(=O)[C@H](CO)NC(=O)[C@H](CCCCN)NC(=O)[C@@H]2CCCN2C(=O)[C@H]([C@@H](C)CC)NC(=O)[C@H]([C@@H](C)O)NC(=O)[C@H](CC(=O)O)NC1=O [[Ala25]ShK] | 0.116 | 0.195 |  | 0.408 |
| CCCC[C@@H]1NC(=O)[C@H](CO)NC(=O)[C@H](Cc2c[nH]cn2)NC(=O)[C@H](CCCCN)NC(=O)[C@@H]2CSSC[C@@H]3NC(=O)[C@H]([C@@H](C)O)NC(=O)[C@H](CCCCN)NC(=O)[C@H](CCCNC(=N)N)NC(=O)[C@H](CSSC[C@H](NC(=O)[C@H](CCCNC(=N)N)NC(=O)[C@H](CO)NC(=O)[C@H](CCCCN)NC(=O)[C@@H]4CCCN4C(=O)[C@H]([C@@H](C)CC)NC(=O)[C@H]([C@@H](C)O)NC(=O)[C@H](CC(=O)O)NC(=O)[C@H](CCC(=O)O)NC(=O)[C@@H](NC(=O)[C@H](CO)NC(=O)[C@@H](N)CCCNC(=N)N)CSSC[C@@H](C(N)=O)NC(=O)[C@H]([C@@H](C)O)NC(=O)CNC3=O)C(=O)N[C@@H]([C@@H](C)O)C(=O)N[C@@H](C)C(=O)N[C@@H](Cc3ccccc3)C(=O)N[C@@H](CCCCN)C(=O)N2)NC(=O)[C@H](Cc2ccccc2)NC(=O)[C@H](CO)NC(=O)[C@H](CC(C)C)NC(=O)[C@H](CCCNC(=N)N)NC(=O)[C@H](Cc2ccc(O)cc2)NC(=O)[C@H](CCCCN)NC1=O [[Glu4, Lys16,Nle21]ShK-amide] | 0.149 | 0.57 |  | 0.965 |
| CCCC[C@@H]1NC(=O)[C@H](CO)NC(=O)[C@H](Cc2c[nH]cn2)NC(=O)[C@H](CCCCN)NC(=O)[C@@H]2CSSC[C@@H]3NC(=O)[C@H]([C@@H](C)O)NC(=O)[C@H](CCCCN)NC(=O)[C@H](CCCNC(=N)N)NC(=O)[C@H](CSSC[C@H](NC(=O)[C@H](CCCNC(=N)N)NC(=O)[C@H](CO)NC(=O)[C@H](CCCCN)NC(=O)[C@@H]4CCCN4C(=O)[C@H]([C@@H](C)CC)NC(=O)[C@H]([C@@H](C)O)NC(=O)[C@H](CC(=O)O)NC(=O)[C@H]([C@@H](C)CC)NC(=O)[C@@H](NC(=O)[C@H](CO)NC(=O)[C@@H](N)CCCNC(=N)N)CSSC[C@@H](C(=O)N[C@@H](CCC(=O)O)C(=O)O)NC(=O)[C@H]([C@@H](C)O)NC(=O)CNC3=O)C(=O)N[C@@H]([C@@H](C)O)C(=O)N[C@@H](C)C(=O)N[C@@H](Cc3ccccc3)C(=O)N[C@@H](CCCCN)C(=O)N2)NC(=O)[C@H](Cc2ccccc2)NC(=O)[C@H](CO)NC(=O)[C@H](CC(C)C)NC(=O)[C@H](CCCNC(=N)N)NC(=O)[C@H](Cc2ccc(O)cc2)NC(=O)[C@H](CCCCN)NC1=O [[Lys16,N1e21]ShK-Glu] | 22.5 | 0.386 |  | 0.621 |
| CC[C@H](C)[C@@H]1NC(=O)[C@H]([C@@H](C)O)NC(=O)[C@H](CC(=O)O)NC(=O)[C@H](CCC(=O)O)NC(=O)[C@@H](NC(=O)[C@H](CO)NC(=O)[C@@H](N)CCCNC(=N)N)CSSC[C@@H](C(N)=O)NC(=O)[C@H]([C@@H](C)O)NC(=O)CNC(=O)[C@@H]2CSSC[C@@H]3NC(=O)[C@H](CCCCN)NC(=O)[C@H](Cc4ccccc4)NC(=O)[C@H](C)NC(=O)[C@H]([C@@H](C)O)NC(=O)[C@H](CSSC[C@H](NC(=O)[C@H](Cc4ccccc4)NC(=O)[C@H](CO)NC(=O)[C@H](CC(C)C)NC(=O)[C@H](CCCNC(=N)N)NC(=O)[C@H](Cc4ccc(O)cc4)NC(=O)[C@H](CCCCN)NC(=O)[C@H](CCSC)NC(=O)[C@H](CO)NC(=O)[C@H](Cc4c[nH]cn4)NC(=O)[C@H](CCCNC(=N)N)NC3=O)C(=O)N[C@@H](CCCCN)C(=O)N[C@@H](CCCNC(=N)N)C(=O)N[C@@H]([C@@H](C)O)C(=O)N2)NC(=O)[C@H](CCCNC(=N)N)NC(=O)[C@H](CO)NC(=O)[C@H](CCCCN)NC(=O)[C@@H]2CCCN2C1=O [[Glu4; Lys16, 29;Arg18, 30]ShK-amide] | 0.192 | 0.203 |  | 0.353 |
| CC[C@H](C)[C@@H]1NC(=O)[C@@H](NC(=O)[C@H](CO)NC(=O)[C@@H](N)CCCNC(=N)N)CSSC[C@@H](C(=O)O)NC(=O)[C@H]([C@@H](C)O)NC(=O)CNC(=O)[C@@H]2CSSC[C@@H]3NC(=O)[C@H](CCC(N)=O)NC(=O)[C@H](Cc4ccccc4)NC(=O)[C@H](C)NC(=O)[C@H]([C@@H](C)O)NC(=O)[C@H](CSSC[C@H](NC(=O)[C@H](Cc4ccccc4)NC(=O)[C@H](CO)NC(=O)[C@H](CCCNC(=N)N)NC(=O)[C@H](CCCNC(=N)N)NC(=O)[C@H](Cc4ccc(O)cc4)NC(=O)[C@H](CCCCN)NC(=O)[C@H](CCSC)NC(=O)[C@H](CO)NC(=O)[C@H](Cc4c[nH]cn4)NC(=O)[C@H](CCCCN)NC3=O)C(=O)N[C@@H](CCCNC(=N)N)C(=O)N[C@@H](CCCCN)C(=O)N[C@@H]([C@@H](C)O)C(=O)N2)NC(=O)[C@H](CCCNC(=N)N)NC(=O)[C@H](CO)NC(=O)[C@H](CCCCN)NC(=O)[C@@H]2CCCN2C(=O)[C@H]([C@@H](C)CC)NC(=O)[C@H]([C@@H](C)O)NC(=O)[C@H](CC(=O)O)NC1=O [[Arg25]ShK] | 0.107 | 0.095 |  | 0.2 |
| CC[C@H](C)[C@@H]1NC(=O)[C@@H](NC(=O)[C@H](CO)NC(=O)[C@@H](N)CCCNC(=N)N)CSSC[C@@H](C(=O)O)NC(=O)[C@H]([C@@H](C)O)NC(=O)CNC(=O)[C@@H]2CSSC[C@@H]3NC(=O)[C@H](Cc4cccc5ccccc45)NC(=O)[C@H](Cc4ccccc4)NC(=O)[C@H](C)NC(=O)[C@H]([C@@H](C)O)NC(=O)[C@H](CSSC[C@H](NC(=O)[C@H](Cc4ccccc4)NC(=O)[C@H](CO)NC(=O)[C@H](CC(C)C)NC(=O)[C@H](CCCNC(=N)N)NC(=O)[C@H](Cc4ccc(O)cc4)NC(=O)[C@H](CCCCN)NC(=O)[C@H](CCSC)NC(=O)[C@H](CO)NC(=O)[C@H](Cc4c[nH]cn4)NC(=O)[C@H](CCCCN)NC3=O)C(=O)N[C@@H](CCCNC(=N)N)C(=O)N[C@@H](CCCCN)C(=O)N[C@@H]([C@@H](C)O)C(=O)N2)NC(=O)[C@H](CCCNC(=N)N)NC(=O)[C@H](CO)NC(=O)[C@H](CCCCN)NC(=O)[C@@H]2CCCN2C(=O)[C@H]([C@@H](C)CC)NC(=O)[C@H]([C@@H](C)O)NC(=O)[C@H](CC(=O)O)NC1=O [[1-Nal16]ShK] | 0.699 | 28.9 |  | 9.55 |
